In test [1] the test system is Host cells capable of producing a recombinant adeno-associated virus of a AAV9 serotype (Expi293F cells). The experiment in a line: Pre-culture treatment process: rAAV yield (total vg) of host cells. The following applies: pre-culture agent with PEI (1 mg/ml), Nocodazole 4 uM and/or M344 2.5 uM, 4 hours after transfection; osmotic shock after 4 days (FIG. 3). In kind it is cell-based. As for the experimental part: (§1) Expi293F cells (Cat #A14527, Thermo) were grown in Expi293 Expression Medium (Cat #A14351-02, Thermo) supplemented with 1% penicillin-streptomycin (Cat #15140122, Thermo). Then, the cells were maintained under serum-free suspension culture conditions. Herein, the serum-free suspension culture conditions were as follows: 120 rpm stirring rate in a shaker incubator (Cat #NB-206CL, N-biotek, South Korea); 37° C.; 8% CO2; and 85% relative humidity.
(§2) Expi293F cells were seeded in Expi293F expression media at a density of 2.5×10^6 cells per 1 mL and cultured for 3 hours. Then, the cells were transfected using 25-kDa linear PEI (Cat #23966-1, Polyscience, USA) along with the three plasmids (pHelper[Cat #112867, Addgene], pRC9n[Cat #112865, Addgene], and pAAV[Cat #105530, Addgene]), respectively. Specifically, the plasmids were mixed in DMEM (Cat #10569010, Thermo) at 1/10 the volume of cells to be transfected. Next, PEI was added to DNAs diluted in DMEM. After an additionally 20-minute culture, a DNA-PEI complex was added to the cells.
The following experiment was conducted to determine a yield improvement effect of the recombinant adeno-associated virus production process including the pre-culture treatment process depending on pre-culture treatment conditions: […]

The test system of test [2] is Host cells capable of producing recombinant adeno-associated virus of the AAV9 serotype (Expi293F cells). The test can be described thus: Osmotic shock process: viral genomes (vg) recovered from media of rAAV-producing host cells. The class given is cell-based. The following applies: 0.5 M salt as osmotic shock reagent, added 4 days after transfection, 3 hours; vs negative control NT (FIG. 2). How it is done:
as §1, §2
The following experiment was conducted to determine a yield improvement effect of the recombinant adeno-associated virus production process including the osmotic shock process depending on osmotic shock conditions:
Host cells capable of producing recombinant adeno-associated virus of the AAV9 serotype were prepared according to Experimental Examples 1.1 to 1.3.
For each experimental group, 2.5×10^6 cells per mL were seeded in a 30 mL culture vessel, and experiments were conducted using a total of 16 culture vessels for each experimental group.
On the basis of the time of transfection of the recombinant adeno-associated virus expression plasmid into the host cells, an osmotic shock reagent was added 4 days later, the condition was maintained for 3 hours, sample media and/or cells were harvested, and the viral genome was (vg) counts were measured.

SMILES strings stand for the structures.

Turning to `COC(=O)Nc1nc2ccc(C(=O)c3cccs3)cc2[nH]1` [Nocodazole], in test [1], the “yield of recombinant adeno-associated virus in the host cells” value was “yield of recombinant adeno-associated virus in the host cells was increased”.

`[Cl-].[Na+]` [NaCl, sodium chloride]: the “number of viral genomes recovered from the media, by salt type” value (“number of viral genomes recovered” below) in test [2] is recorded as “significant increase in the number of viral genomes recovered from the media”.

In the case of `CN(C)c1ccc(C(=O)NCCCCCCC(=O)NO)cc1` [M344], the “yield of recombinant adeno-associated virus in the host cells” value in test [1] was “yield of recombinant adeno-associated virus in the host cells was increased”.

In the case of `[Cl-].[Cl-].[Mg+2]` [MgCl2, magnesium chloride], in test [2], the “number of viral genomes recovered” value is on record as “significant increase in the number of viral genomes recovered from the media”.

With `[Cl-].[K+]` [KCl, potassium chloride], in test [2], the “number of viral genomes recovered” value is “significant increase in the number of viral genomes recovered from the media”.

Source of the values: US20260028596A1, “METHOD FOR PRODUCING HIGH YIELD AND HIGH QUALITY RECOMBINANT ADENO-[…]” (Aavatar Therapeutics Co.,Ltd., priority 2022, published 2026).
